Tested on: CCI-rats (chronic constriction injury of the sciatic nerve); tactile allodynia in ipsilateral hindpaw, antinociception in contralateral hindpaw
Set-up: species or system Sprague-Dawley rats
Conditions: rat, in vivo

**Q.** How did the ED10 turn out when CN1CC[C@]23c4c5ccc(O)c4O[C@H]2[C@@H](O)C=C[C@H]3[C@H]1C5.Cl [Morphine, Morphine hydrochloride, reference compound] was run?
**A.** 0.7 nmol

**Q.** And the ED20?
**A.** 3.5 nmol

**Q.** And the “time of peak antiallodynic and antinociceptive responses post-dosing” value?
**A.** 0.5 to 0.75 h

**Q.** And the “dose-response at high i.t. doses” value (hydrochloride)?
**A.** pronounced sub-maximal ‘ceiling’ effect

Source: patent US8188048B2 (priority 2006, dated 2012)
